The record followed here is patent US20260184715A1, “NOVEL PYRROLO[1,2-d][1,2,4] TRIAZINONE DERIVATIVES AS NEGATIVE ALLOSTERIC MODULATORS OF MGLU7 RECEPTORS” (Neurosterix Pharma Sarl., priority 2022, published 2026).

The test concerns the target T1, human metabotropic glutamate 7 receptor (hmGlu7) (Homo sapiens, UniProt Q14831).
T1 construct: expressed in transfected cells
Put plainly: mGlu7 assay on HEK-expressing human mGlu7: fluorescent cell based-Ca2+ mobilization assay (FLIPR), inhibition of EC80 L-AP4 response. The following applies: HEK-293 cells expressing hmGlu7, EC80 L-AP4; mean of at least three independent experiments in duplicate; read-out: Ca^2+ Flux (mean IC50). The text has this:
mGlu7 Assay on HEK-Expressing Human mGLU7
The cDNA encoding the human metabotropic glutamate 7 receptor (hmGlu7), (accession number NM_181874.2, NCBI Nucleotide database browser), was subcloned into an expression vector containing also the hygromycin resistance gene. In parallel, the cDNA encoding a G protein allowing redirection of the activation signal to intracellular calcium flux was subcloned into a different expression vector containing also the Puromycin resistance gene. Transfection of both these vectors into HEK293 cells with PolyFect reagent (Qiagen) according to supplier's protocol, and hygromycin and puromycin treatment allowed selection of antibiotic resistant cells which had integrated stably one or more copies of the plasmids. Positive cellular clones expressing hmGlu7 were identified in a functional assay measuring changes in calcium fluxes in response to glutamate and L-AP4 or known mGlu7 orthosteric antagonists.
HEK-293 cells expressing hmGlu7 were maintained in media containing DMEM, Fetal Bovine Serum (10%), GlutaMAX™ (2 mM), penicillin (100 units/mL), streptomycin (100 μg/mL), geneticin (100 μg/mL) and hygromycin-B (40 μg/mL) and puromycin (1 μg/mL) at 37° C. with 5% CO2 in a humidified atmosphere.
Human mGlu7 HEK-293 cells were plated out 24 hours prior to a fluorescent cell-based calcium mobilization assay using FLIPR^384 assay (Molecular Device, Sunnyvale, CA, USA) in black-walled, clear-bottomed, poly-L-ornithine-coated 384-well plates at a density of 25,000 cells/well in a glutamine/glutamate free DMEM medium containing fetal bovine serum (10%), penicillin (100 units/mL), streptomycin (100 μg/mL) and doxycyline (1 μg/ml) at 37° C. with 5% CO2 in a humidified atmosphere.
On the day of the assay, the medium was aspirated and the cells were loaded with a 3 μM solution of Fluo4-AM (LuBioScience, Lucerne, Switzerland) in 0.03% pluronic acid. After 1 hour at 37° C./5% CO2, the non incorporated dye was removed by washing cell plate with the assay buffer. All assays were performed in a pH 7.4 buffered-Solution containing 20 mM HEPES, 143 mM NaCl, 6 mM KCl, 1 mM MgSO4, 1 mM CaCl2, 0.125 mM sulfinpyrazone and 0.1% glucose.
After 10 s of basal fluorescence recording, various concentrations of the compounds of the invention were added to the cells. Changes in fluorescence levels were first monitored for 180 s in order to detect any agonist activity of the compounds. Then the cells were stimulated by an EC80 L-AP4 concentration for an additional 110 s in order to measure inhibiting activities of the compounds of the invention. EC80 L-AP4 concentration is the concentration giving 80% of the maximal glutamate response.
The concentration-response curves of L-AP4 or representative compounds of the present invention were generated using the Prism GraphPad software (Graph Pad Inc, San Diego, USA). The curves were fitted to a four-parameter logistic equation:
(Y=Bottom+(Top−Bottom)/(1+10^((Log IC50−X)*Hill Slope)
allowing determination of IC50 values.
The Table 3 below represents the mean IC50 obtained from at least three independent experiments of selected molecules performed in duplicate.

T1 sequence (Q14831 35-922 isoform Q14831-2 limits assumed): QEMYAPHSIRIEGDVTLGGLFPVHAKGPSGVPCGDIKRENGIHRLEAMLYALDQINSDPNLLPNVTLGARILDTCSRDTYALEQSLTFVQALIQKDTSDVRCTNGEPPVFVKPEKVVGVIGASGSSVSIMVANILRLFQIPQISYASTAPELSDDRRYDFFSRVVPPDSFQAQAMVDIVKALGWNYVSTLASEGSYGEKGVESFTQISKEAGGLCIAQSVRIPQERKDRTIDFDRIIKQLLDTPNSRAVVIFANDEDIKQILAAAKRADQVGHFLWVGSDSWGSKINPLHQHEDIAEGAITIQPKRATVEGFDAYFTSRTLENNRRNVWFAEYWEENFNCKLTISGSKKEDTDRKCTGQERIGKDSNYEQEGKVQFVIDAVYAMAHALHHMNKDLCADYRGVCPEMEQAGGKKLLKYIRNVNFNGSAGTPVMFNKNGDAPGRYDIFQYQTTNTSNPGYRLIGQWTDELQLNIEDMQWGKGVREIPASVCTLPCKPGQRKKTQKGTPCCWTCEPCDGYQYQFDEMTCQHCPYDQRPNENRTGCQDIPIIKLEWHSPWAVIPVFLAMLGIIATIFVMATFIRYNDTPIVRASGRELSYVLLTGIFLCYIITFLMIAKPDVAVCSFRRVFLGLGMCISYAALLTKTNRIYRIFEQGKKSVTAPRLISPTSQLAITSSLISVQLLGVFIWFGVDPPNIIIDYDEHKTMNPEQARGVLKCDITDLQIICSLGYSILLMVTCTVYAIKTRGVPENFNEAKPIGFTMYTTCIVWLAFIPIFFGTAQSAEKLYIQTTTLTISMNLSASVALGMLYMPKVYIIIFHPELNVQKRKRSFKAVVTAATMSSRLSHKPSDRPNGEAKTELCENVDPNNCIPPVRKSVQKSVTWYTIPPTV

Take `Cc1c(-c2cccc(OC3CC3)c2F)c(C)n2c(=O)n(-c3ncccn3)ncc12` [1-125]: the IC50 (as a rule, the concentration needed to halve the response being measured) lay within 100 to 1000 nM.

As for `COc1cc(-c2cc3cnn(-c4ncccn4)c(=O)n3c2C)ccc1F` [1-111], the IC50 is less than 100 nM.

Regarding `Cc1c(-c2cccc3c2ccn3C2CC2)c(C)n2c(=O)n(-c3ncccn3)ncc12` [1-96], the IC50 is less than 100 nM.

In the case of `Cc1c(-c2cccc(N3CCC3)c2)c(C)n2c(=O)n(Cc3ccccn3)ncc12` [1-9], the IC50 is 100 to 1000 nM.

Regarding `Cc1c(-c2c(C)c3cnn(-c4ccccn4)c(=O)n3c2C)cccc1N1CCC1` [1-13], the half-inhibitory concentration (IC50) is less than 100 nM.

Turning to `Cc1c(-c2cccc(N3CCC3)c2)c(C)n2c(=O)n(-c3ncccc3F)ncc12` [1-7], the IC50 was less than 100 nM.

`Cc1ccc(-c2c(C)c3cnn(-c4ccccn4)c(=O)n3c2C)c(C)c1` [1-1]: the IC50 was less than 100 nM.

`Cc1c(-c2cccc(N3CCC3)c2)c(C)n2c(=O)n(-c3ncc(N)cn3)ncc12` [1-44]: the 50% inhibitory concentration (IC50) is less than 100 nM.

As to `Cc1c(-c2cc3cnn(-c4ccccn4)c(=O)n3c2C)ccnc1OC1CC1` [1-143], the IC50 is less than 100 nM.

In the case of `Cc1c(-c2cccc3c2OCCN3C)cc2cnn(-c3ccccn3)c(=O)n12` [1-62], the IC50 was less than 100 nM.

In the case of `Cc1c(-c2cccc3c2CCN3C)cc2cnn(-c3ncccn3)c(=O)n12` [1-90], the IC50 was less than 100 nM.

In the case of `COc1cccc(-c2cc3cnn(-c4ccccn4)c(=O)n3c2C)c1Cl` [1-73], the IC50 is less than 100 nM.

`Cc1c(-c2cccc(N3CCC3)c2)c(C)n2c(=O)n(-c3ccc(CCO)cn3)ncc12` [1-11]: the IC50 fell in the range of 1000 to 10000 nM.

Regarding `Cc1c(-c2cccc(N3C4CCC3CC4)c2)c(C)n2c(=O)n(-c3ncccn3)ncc12` [1-131], the IC50 was in the range of 100 to 1000 nM.

Take `COc1cc(-c2cc3cnn(-c4ccccn4)c(=O)n3c2C)ccn1` [1-106]: the IC50 was less than 100 nM.

As to `Cc1c(-c2ccnc(OC(F)F)c2)cc2cnn(-c3ncccn3)c(=O)n12` [1-147], the IC50 was less than 100 nM.

For the compound `COc1cc(F)cc(-c2cc3cnn(-c4ncccn4)c(=O)n3c2C)c1` [1-103], the IC50 was less than 100 nM.

In the case of `Cc1c(-c2ccnc(OC(F)F)c2)c(C)n2c(=O)n(-c3ccccn3)ncc12` [1-140], the half-maximal inhibitory concentration (IC50) lay in the range of 100 to 1000 nM.

As to `Cc1c(-c2cccc(OC(F)(F)F)c2)c(C)n2c(=O)n(-c3ncccn3)ncc12` [1-53, 6,8-dimethyl-3-pyrimidin-2-yl-7-[3-(trifluoromethoxy)phenyl]pyrrolo[1,2-d][1,2,4]triazin-4-one], the IC50 was in the range of 100 to 1000 nM.

With `Cc1c(-c2cccc(OC(F)F)c2)c(C)n2c(=O)n(-c3ncc(F)cn3)ncc12` [1-17], the IC50 is less than 100 nM.

For `Cc1c(-c2cccc3c2OCCN3C)cc2cnn(-c3ncccn3)c(=O)n12` [1-63], the IC50 was less than 100 nM.

For the compound `Cc1c(-c2cccc(N3CCC3)c2)c(C)n2c(=O)n(-c3ccc(F)cn3)ncc12` [1-22], the IC50 was less than 100 nM.

`Cc1c(-c2cccc(OC3CC3)c2)c(C)n2c(=O)n(-c3ncc(N4CCC(O)C4)cn3)ncc12` (stereo not drawn) [1-80]: the IC50 is 100 to 1000 nM.

On to `Cc1c(-c2cccc(OC3CC3)c2)c(C)n2c(=O)n(-c3ncc(F)cn3)ncc12` [1-21], for which the IC50 was less than 100 nM.

Take `COc1ccc(-c2c(C)c3cnn(-c4ccccn4)c(=O)n3c2C)cn1` [1-129]: the IC50 is less than 100 nM.

For `Cc1c(-c2ccnc(OC(F)F)c2)c(C)n2c(=O)n(-c3ncccn3)ncc12` [1-141], the IC50 fell in the range of 1000 to 10000 nM.

For the compound `Cc1c(-c2cccc(OC3CCC3)c2)c(C)n2c(=O)n(-c3ncccn3)ncc12` [1-124], the IC50 lay in the range of 100 to 1000 nM.

For the compound `COc1cc(-c2cc3cnn(-c4ccccn4)c(=O)n3c2C)ccc1F` [1-107], the IC50 is less than 100 nM.

On to `COc1cccc(-c2cc3cnn(-c4ccccn4)c(=O)n3c2C)c1C` [1-72], for which the IC50 is less than 100 nM.

For `Cc1c(-c2cccc(N3CCC3)c2)c(C)n2c(=O)n(-c3ccc(NCCN(C)C)cn3)ncc12` [1-36], the IC50 lay in the range of 100 to 1000 nM.

Turning to `COc1cc(-c2c(C)c3cnn(-c4ncccn4)c(=O)n3c2C)ccn1` [1-139], the IC50 fell in the range of 100 to 1000 nM.

With `Cc1c(OC2CC2)cccc1-c1c(C)c2cnn(-c3ccc(C(C)(C)O)cn3)c(=O)n2c1C` [1-59], the 50% inhibitory concentration (IC50) is less than 100 nM.

For `COc1cccc(-c2cc3cnn(-c4ncccn4)c(=O)n3c2C)c1` [1-61], the concentration for half-maximal inhibition (IC50) lay in the range of 100 to 1000 nM.

Consider `COc1cccc(-c2cc3cnn(-c4ccccn4)c(=O)n3c2C)c1F` [1-108], for which the IC50 was in the range of 100 to 1000 nM.

With `COc1ccc(-c2c(C)c3cnn(-c4ncccn4)c(=O)n3c2C)cc1` [1-122], the concentration for half-maximal inhibition (IC50) is 100 to 1000 nM.

Consider `COc1ccc(-c2cc3cnn(-c4ncccn4)c(=O)n3c2C)cn1` [1-144], for which the IC50 lay in the range of 100 to 1000 nM.

In the case of `Cc1cnc(-n2ncc3c(C)c(-c4cccc(OC5CC5)c4)c(C)n3c2=O)nc1` [1-50], the IC50 fell in the range of 100 to 1000 nM.

As to `CCn1ncc2c(C)c(-c3cccc(N4CCC4)c3)c(C)n2c1=O` [1-10, 7-[3-(azetidin-1-yl)phenyl]-3-ethyl-6,8-dimethyl-pyrrolo[1,2-d][1,2,4]triazin-4-one], the IC50 was in the range of 100 to 1000 nM.

With `Cc1c(-c2cccc(N3CCC3)c2)c(C)n2c(=O)n(-c3ccc(Br)cn3)ncc12` [1-26], the IC50 is 1000 to 10000 nM.

In the case of `Cc1c(-c2cccc(OC(F)(F)F)c2)c(C)n2c(=O)n(-c3ncc(F)cn3)ncc12` [1-60], the half-maximal inhibitory concentration (IC50) was 100 to 1000 nM.

`Cc1c(-c2cccc(OC3CC3)c2)c(C)n2c(=O)n(-c3ncccc3F)ncc12` [1-51]: the IC50 was 100 to 1000 nM.

`Cc1c(-c2cccc(OC(F)F)c2)cc2cnn(-c3ncccn3)c(=O)n12` [1-74]: the IC50 is less than 100 nM.

As for `Cc1c(OC2CC2)cccc1-c1cc2cnn(-c3ccccn3)c(=O)n2c1` [1-82], the IC50 was in the range of 100 to 1000 nM.

In the case of `Cc1c(-c2cccc(N3CCC3)c2)c(C)n2c(=O)n(-c3ccc(C(C)(C)O)cn3)ncc12` [1-24, 7-[3-(azetidin-1-yl)phenyl]-3-[5-(1-hydroxy-1-methyl-ethyl)-2-pyridyl]-6,8-dimethyl-pyrrolo[1,2-d][1,2,4]triazin-4-one], the half-inhibitory concentration (IC50) is less than 100 nM.

For the compound `COc1nccc(-c2c(C)c3cnn(-c4ncccn4)c(=O)n3c2C)c1F` [1-138], the IC50 was in the range of 100 to 1000 nM.
